In the NIST ThermoML archive (doi:10.1016/j.jct.2007.09.002):
Numbers after ± are expanded uncertainties.

Details: Liquid; Ebulliometric method (Recirculating still)

Row | Compound | Normal boiling temperature [°C]
1 | ClC(Cl)Cl [trichloromethane] | 61.0 ± 0.2
2 | FC(F)(F)c1ccccc1 [(trifluoromethyl)benzene] | 102.6 ± 0.2
3 | c1ccccc1 [benzene] | 80 ± 0.2
4 | CCO [ethanol] | 78.6 ± 0.2
